Literature values as cited in US20260206743A1, “PROPINEB NANOSUSPENSION” (priority 2022, published 2026).
Like-named read-outs stand apart in the source and are kept apart here.

## poly [1,2-propylene bis(dithiocarbamate)] zinc [Propineb]
20° C.
  Solubility in water: < 10 µg/mL
DMF+DMSO mixture
  Solubility in organic solvent: exceed 200 g/L
dichloromethane
  Solubility in organic solvent: < 100 µg/mL
hexane
  Solubility in organic solvent: < 100 µg/mL
toluene
  Solubility in organic solvent: < 100 µg/mL
